This note sets out measurements from patent publication US10543221B2, “Beta-lactamase inhibitors, formulations, and uses thereof” (priority 2016, dated 2020).

SMILES strings stand for the structures.

The subject of experiment [1] is K. pneumoniae strain expressing KPC-2. It is filed as cell-based. Conditions: single agent; K. pneumoniae ATCC 4683, phenotype KPC-2. As for the experimental part: (§1) MIC Studies. Compounds were tested for synergy with the carbapenem antibiotic, imipenem, against BL21(DE3) E. coli expressing KPC-2. MIC values were determined with the Mueller-Hinton broth microdilution method. To test for inhibitory activity, compounds were dissolved in DMSO and dilutions were carried out using LB broth. Compounds were test at 100 µM with increasing concentrations of imipenem. […] After inoculation, the plates are incubated at 37 C for 24 hours. The MIC of the compounds were then determined visually. […] For Table 3, 16 μg/mL of compounds were tested for synergy with the carbapenem antibiotic, imipenem, against a K. pneumoniae strain expressing KPC-2.

Another experiment concerns the target VIM-2 (Escherichia coli, UniProt Q5U7L7). In words: Steady-state kinetic analysis, VIM-2. Format: biochemical.
For experiment [2], the target named is NDM-1 metallo-beta-lactamase (Klebsiella pneumoniae, UniProt C7C422). Description: Steady-state kinetic analysis, nitrocefin hydrolysis, NDM-1. Format: biochemical. To be noted: second NDM-1 column of Table 1.
NDM-1 metallo-beta-lactamase, sequence (C7C422 whole entry, looked up): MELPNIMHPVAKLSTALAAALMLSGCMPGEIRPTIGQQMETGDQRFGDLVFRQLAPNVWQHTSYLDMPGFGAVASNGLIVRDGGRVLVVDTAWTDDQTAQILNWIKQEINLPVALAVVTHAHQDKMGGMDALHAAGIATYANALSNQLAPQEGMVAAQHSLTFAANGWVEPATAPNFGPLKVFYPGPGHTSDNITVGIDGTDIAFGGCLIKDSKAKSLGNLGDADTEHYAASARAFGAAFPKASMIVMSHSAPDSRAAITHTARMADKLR
Another experiment concerns the target His-tag SHV-2 (Escherichia coli, UniProt P0A9Z7). As for the experimental part: Steady-State Kinetic Analysis. Steady-state kinetic parameters were determined by using a Biotek Cytation Multi-Mode Reader. For KPC-2, each assay was performed in 100 mM Tris-HCl pH 7.0, 0.01% Triton X-100 at 37 C. Vmax and Km were determined from initial steady-state velocities from nitrocefin read at a wavelength of 486 nm. The kinetic parameters were obtained using the non-linear portion of the data to the Henri-Michaelis (equation 1) using SigmaPlot 12.5. […] Compounds according to Formulas 5-10 were purchased from commercial sources. The last compound was de novo synthesized.

A further experiment addresses KPC-2 beta-lactamase (Klebsiella pneumoniae, UniProt Q9F663). In words: Steady-state kinetic analysis, nitrocefin hydrolysis, KPC-2. It is filed as biochemical. Conditions: nitrocefin substrate. The protocol: Fractions were analyzed by SDS-PAGE.
Steady-State Kinetic Analysis. Steady-state kinetic parameters were determined by using a Biotek Cytation Multi-Mode Reader. For KPC-2, each assay was performed in 100 mM Tris-HCl pH 7.0, 0.01% Triton X-100 at 37 C. […] Compounds according to Formulas 5-10 were purchased from commercial sources. The last compound was de novo synthesized.

Experiment [3] relates to BL21(DE3) E. coli expressing KPC-2. In words: MIC study, synergy with imipenem, broth microdilution, E. coli. It is filed as cell-based. Conditions: imipenem alone; E. coli BL21(DE3) pET-GST-blaKPC-2; 37 C, 24 hours. As for the experimental part: as §1
(Dilution methods test growth across graded concentrations, often in twofold steps.)

His-tag SHV-2, sequence (P0A9Z7 22-286 limits assumed): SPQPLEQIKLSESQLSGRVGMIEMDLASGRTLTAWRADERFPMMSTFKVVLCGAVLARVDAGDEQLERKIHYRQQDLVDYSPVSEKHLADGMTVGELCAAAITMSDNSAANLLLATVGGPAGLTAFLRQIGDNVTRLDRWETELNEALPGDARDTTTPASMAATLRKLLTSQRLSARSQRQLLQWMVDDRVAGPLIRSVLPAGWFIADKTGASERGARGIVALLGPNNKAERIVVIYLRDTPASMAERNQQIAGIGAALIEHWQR
KPC-2 beta-lactamase, sequence (Q9F663 whole entry, looked up): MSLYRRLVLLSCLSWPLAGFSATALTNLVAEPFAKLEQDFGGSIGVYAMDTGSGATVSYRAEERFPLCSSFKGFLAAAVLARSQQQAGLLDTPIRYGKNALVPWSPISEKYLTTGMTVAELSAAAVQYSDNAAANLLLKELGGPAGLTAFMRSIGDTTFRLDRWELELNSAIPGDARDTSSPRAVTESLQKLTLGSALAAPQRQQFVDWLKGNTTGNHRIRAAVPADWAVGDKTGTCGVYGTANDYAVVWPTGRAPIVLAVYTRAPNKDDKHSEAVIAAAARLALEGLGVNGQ

By MIC is commonly meant the smallest concentration in the dilution series that meets the test's criterion for growth inhibition. As for `Cc1cc2oc(=O)cc(CP(=O)(O)O)c2cc1C` [Compound 73043], in experiment [1], the minimum inhibitory concentration (MIC) is more than 32 µg/mL. For orientation: Ki means the dissociation constant of the complex between target and ligand, obtained from inhibition or displacement. Turning to `Cc1cc(Br)c2c(CP(=O)(O)O)cc(=O)oc2c1` [Compound 994942], the values for the Ki (on VIM-2; in experiment [2]) were 1.8 µM and 55 µM, respectively. As for `O=c1cc(CP(=O)(O)O)c2ccccc2[nH]1` [Compound 994943], the Ki at VIM-2 is 9.12 µM.

Compound `O=c1cc(CP(=O)(O)O)c2c(F)cc(F)cc2o1` [Compound 995015] had a Ki at VIM-2 of 4.7 µM. On the same count and under the same terms, as for `O=P(O)(O)Cc1cccc2cccnc12` [Compound 995016], the figure is 24.3 µM. On the same count and under the same terms, the figure for `Cn1c(=O)cc(CP(=O)(O)O)c2ccccc21` [Compound 995018] is 15.6 µM.

Regarding `O=P(O)(O)Cc1cccc2ccc[n+]([O-])c12` [Compound 995019], the “His-tag SHV-2 Ki” value on His-tag SHV-2 is “precipitation”. At VIM-2, the “VIM-2 Ki” value is listed as “precipitation”. Also, in experiment [2], the “NDM-1 Ki” value is recorded as “precipitation”. The “His-Tag KPC-2 Ki” value at KPC-2 beta-lactamase is on record as “precipitation”. Consider `C[C@@H](O)[C@H]1C(=O)N2C(C(=O)O)=C(SCCN=CN)C[C@H]12` [Imipenem, imipenem, reference compound], for which the MIC came to 8 µg/mL in experiment [1] and 4 µg/mL in experiment [3].
